Measurements from publication PMC7606587 (Nuclear medicine and biology, 2020).
Like-named read-outs stand apart in the source and are kept apart here.

System: C4–2B prostate cancer xenografts
Format: in vivo, athymic (BALB/c nu/nu) mice
Conditions: for blood clearance (in words): 1 and 4 h pi
[1] = C4–2B xenograft, 4 h pi, tail vein injection
[2] = C4–2B xenograft, time point not stated at the place (study at 1, 4, 24 h pi)

| Substance | tumor concentration relative to [131I]16a (C4–2B xenograft) | tumor concentration [1] | tumor concentration [2] | blood clearance (in words) | highest spleen concentration (1 h pi) | tumor concentration relative to blood concentration (1 h pi) | kidney concentration (4 h pi) | tumor concentration relative to blood concentration (4 h pi) | kidney concentration (4 h pi, listed as 16a) | tumor concentration (C4–2B xenograft, 1 h pi) | tumor concentration (C4–2B xenograft, at 1 and 4 h pi) | concentration in all the tissues except for the intestine (1 h pi) | intestine concentration (1 h pi) | tumor uptake / tumor targeting (in words) (C4–2B xenograft) |
| --- | --- | --- | --- | --- | --- | --- | --- | --- | --- | --- | --- | --- | --- | --- |
| 3-B10H9-dioxa-5-LuG-dPEG4-Ph-Lys-Ac [[^131I]16b] | ~ 4 × | ~ 15 %ID/g | 14–15 %ID/g | – | – | – | – | – | – | – | – | – | – | – |
| 3-B10H9-dioxa-5-LuG-dPEG12-Ph-Lys-Ac [[^131I]16a] | – | ~ 4 %ID/g | ~ 4 %ID/g | rapid blood clearance | 9 %ID/g | 2.3 × | ~ 94 %ID/g | 4.7 × | 94 %ID/g | ~ 4 % ID/g | < 5 %ID/g | – | – | – |
| 3-B10H9-dioxa-5-dPEG12CO2H-Ph-Lys-Ac [[^125I]9a] | – | – | – | rapid blood clearance | – | – | – | – | – | – | – | lower than 2 % ID/g | 12 %ID/g | essentially no tumor uptake |
